Experimental data published in patent US8563473B2, “Aqueous herbicidal concentrates of auxinic carboxylic acids with reduced eye irritancy” (Dow AgroSciences, LLC., priority 2010, dated 2013).

Assays:
susceptible plants = details: concentrate diluted in water, applied postemergently; disclosed in WO 2008/106107 A1; cited from earlier work
[1] = Cold temperature stability / storage of aqueous concentrates; assay type: physicochemical; details: […] salt solution ([…] acid equivalent) stored at −10° C. for 14 days

Substance	Weed control (susceptible plants)	Crystallization on storage [1]
choline salt of 2,4-D [2,4-D choline]	good weed control	–
triclopyr choline salt	–	did not show any crystallization
